Experimental data reported in PubChem BioAssay (NCI).
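Interpolation was linear, between the two tested concentrations surrounding the appropriate level; five concentrations were tested over 48 hours in 96-well plates. TGI: concentration producing complete growth inhibition.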

Key:
Experiment in all cases: NCI anticancer screen, dose series, 48 h
786-0 renal = test system: 786-0 renal
A549 NSCLC = test system: A549 NSCLC
ACHN renal = test system: ACHN renal
CAKI-1 renal = test system: CAKI-1 renal
COLO 205 colon = test system: COLO 205 colon
DLD-1 colon = test system: DLD-1 colon
DMS 114 small cell lung = test system: DMS 114 small cell lung
DMS 273 small cell lung = test system: DMS 273 small cell lung
EKVX NSCLC = test system: EKVX NSCLC
HCC-2998 colon = test system: HCC-2998 colon
HCT-116 colon = test system: HCT-116 colon
HCT-15 colon = test system: HCT-15 colon
HOP-18 NSCLC = test system: HOP-18 NSCLC
HOP-92 NSCLC = test system: HOP-92 NSCLC
HT29 colon = test system: HT29 colon
IGROV1 ovarian = test system: IGROV1 ovarian
K-562 leukemia = test system: K-562 leukemia
KM12 colon = test system: KM12 colon
KM20L2 colon = test system: KM20L2 colon
LXFL 529 NSCLC = test system: LXFL 529 NSCLC
M14 melanoma = test system: M14 melanoma
M19-MEL melanoma = test system: M19-MEL melanoma
MALME-3M melanoma = test system: MALME-3M melanoma
MOLT-4 leukemia = test system: MOLT-4 leukemia
NCI-H23 lung = test system: NCI-H23 lung
NCI-H460 lung = test system: NCI-H460 lung
NCI-H522 lung = test system: NCI-H522 lung
OVCAR-3 ovarian = test system: OVCAR-3 ovarian
OVCAR-4 ovarian = test system: OVCAR-4 ovarian
OVCAR-5 ovarian = test system: OVCAR-5 ovarian
OVCAR-8 ovarian = test system: OVCAR-8 ovarian
RPMI-8226 leukemia = test system: RPMI-8226 leukemia
RXF 393 renal = test system: RXF 393 renal
SF-295 CNS = test system: SF-295 CNS
SF-539 CNS = test system: SF-539 CNS
SK-MEL-2 melanoma = test system: SK-MEL-2 melanoma
SK-MEL-28 melanoma = test system: SK-MEL-28 melanoma
SK-MEL-5 melanoma = test system: SK-MEL-5 melanoma
SK-OV-3 ovarian = test system: SK-OV-3 ovarian
SN12C renal = test system: SN12C renal
SNB-19 CNS = test system: SNB-19 CNS
SNB-75 CNS = test system: SNB-75 CNS
SNB-78 CNS = test system: SNB-78 CNS
SR leukemia = test system: SR leukemia
SW-620 colon = test system: SW-620 colon
TK-10 renal = test system: TK-10 renal
U251 CNS = test system: U251 CNS
UACC-257 melanoma = test system: UACC-257 melanoma
UACC-62 melanoma = test system: UACC-62 melanoma
UO-31 renal = test system: UO-31 renal
XF 498 CNS = test system: XF 498 CNS
A498 renal = test system: A498 renal
CCRF-CEM leukemia = test system: CCRF-CEM leukemia
HL-60(TB) leukemia = test system: HL-60(TB) leukemia
HOP-62 NSCLC = test system: HOP-62 NSCLC
LOX IMVI melanoma = test system: LOX IMVI melanoma
NCI-H226 lung = test system: NCI-H226 lung
RXF-631 renal = test system: RXF-631 renal
SF-268 CNS = test system: SF-268 CNS

## O=C(/C(=N/Nc1ccccc1)c1ccc([N+](=O)[O-])cc1)c1ccc([N+](=O)[O-])cc1
786-0 renal
  TGI: > 100 µM
A549 NSCLC
  TGI: > 100 µM
ACHN renal
  TGI: > 100 µM
CAKI-1 renal
  TGI: > 100 µM
COLO 205 colon
  TGI: > 100 µM
DLD-1 colon
  TGI: > 100 µM
DMS 114 small cell lung
  TGI: > 100 µM
DMS 273 small cell lung
  TGI: > 100 µM
EKVX NSCLC
  TGI: > 100 µM
HCC-2998 colon
  TGI: > 100 µM
HCT-116 colon
  TGI: > 100 µM
HCT-15 colon
  TGI: > 100 µM
HOP-18 NSCLC
  TGI: > 100 µM
HOP-92 NSCLC
  TGI: > 100 µM
HT29 colon
  TGI: > 100 µM
IGROV1 ovarian
  TGI: > 100 µM
K-562 leukemia
  TGI: > 100 µM
KM12 colon
  TGI: > 100 µM
KM20L2 colon
  TGI: > 100 µM
LXFL 529 NSCLC
  TGI: > 100 µM
M14 melanoma
  TGI: > 100 µM
M19-MEL melanoma
  TGI: > 100 µM
MALME-3M melanoma
  TGI: > 100 µM
MOLT-4 leukemia
  TGI: > 100 µM
NCI-H23 lung
  TGI: > 100 µM
NCI-H460 lung
  TGI: > 100 µM
NCI-H522 lung
  TGI: > 100 µM
OVCAR-3 ovarian
  TGI: > 100 µM
OVCAR-4 ovarian
  TGI: > 100 µM
OVCAR-5 ovarian
  TGI: > 100 µM
OVCAR-8 ovarian
  TGI: > 100 µM
RPMI-8226 leukemia
  TGI: > 100 µM
RXF 393 renal
  TGI: > 100 µM
SF-295 CNS
  TGI: > 100 µM
SF-539 CNS
  TGI: > 100 µM
SK-MEL-2 melanoma
  TGI: > 100 µM
SK-MEL-28 melanoma
  TGI: > 100 µM
SK-MEL-5 melanoma
  TGI: > 100 µM
SK-OV-3 ovarian
  TGI: > 100 µM
SN12C renal
  TGI: > 100 µM
SNB-19 CNS
  TGI: > 100 µM
SNB-75 CNS
  TGI: > 100 µM
SNB-78 CNS
  TGI: > 100 µM
SR leukemia
  TGI: > 100 µM
SW-620 colon
  TGI: > 100 µM
TK-10 renal
  TGI: > 100 µM
U251 CNS
  TGI: > 100 µM
UACC-257 melanoma
  TGI: > 100 µM
UACC-62 melanoma
  TGI: > 100 µM
UO-31 renal
  TGI: > 100 µM
XF 498 CNS
  TGI: > 100 µM

## CN1CCCN2CCN(C)CCCN(CC1)CC2
786-0 renal
  TGI: > 100 µM
A498 renal
  TGI: > 100 µM
CAKI-1 renal
  TGI: > 100 µM
CCRF-CEM leukemia
  TGI: > 100 µM
COLO 205 colon
  TGI: > 100 µM
DLD-1 colon
  TGI: > 100 µM
DMS 114 small cell lung
  TGI: > 100 µM
DMS 273 small cell lung
  TGI: > 100 µM
HCC-2998 colon
  TGI: > 100 µM
HCT-116 colon
  TGI: > 100 µM
HL-60(TB) leukemia
  TGI: > 100 µM
HOP-62 NSCLC
  TGI: > 100 µM
HOP-92 NSCLC
  TGI: > 100 µM
IGROV1 ovarian
  TGI: > 100 µM
K-562 leukemia
  TGI: > 100 µM
LOX IMVI melanoma
  TGI: > 100 µM
LXFL 529 NSCLC
  TGI: > 100 µM
M14 melanoma
  TGI: > 100 µM
M19-MEL melanoma
  TGI: > 100 µM
MALME-3M melanoma
  TGI: > 100 µM
MOLT-4 leukemia
  TGI: > 100 µM
NCI-H226 lung
  TGI: > 100 µM
NCI-H23 lung
  TGI: > 100 µM
NCI-H460 lung
  TGI: > 100 µM
NCI-H522 lung
  TGI: > 100 µM
OVCAR-4 ovarian
  TGI: > 100 µM
RPMI-8226 leukemia
  TGI: > 100 µM
RXF-631 renal
  TGI: > 100 µM
SF-268 CNS
  TGI: > 100 µM
SF-539 CNS
  TGI: > 100 µM
SK-MEL-2 melanoma
  TGI: > 100 µM
SK-MEL-28 melanoma
  TGI: > 100 µM
SK-OV-3 ovarian
  TGI: > 100 µM
SN12C renal
  TGI: > 100 µM
SNB-75 CNS
  TGI: > 100 µM
SNB-78 CNS
  TGI: > 100 µM
SR leukemia
  TGI: > 100 µM
UACC-62 melanoma
  TGI: > 100 µM
UO-31 renal
  TGI: > 100 µM
XF 498 CNS
  TGI: > 100 µM

## O=C(N/C(=C/c1cccc([N+](=O)[O-])c1)c1nc2ccc(Cl)cc2[nH]1)c1ccccc1
786-0 renal
  TGI: > 100 µM
A498 renal
  TGI: 66.2 µM
A549 NSCLC
  TGI: > 100 µM
ACHN renal
  TGI: 48.9 µM
CAKI-1 renal
  TGI: 71.3 µM
CCRF-CEM leukemia
  TGI: 48 µM
COLO 205 colon
  TGI: > 100 µM
DMS 114 small cell lung
  TGI: 62.1 µM
EKVX NSCLC
  TGI: 25.3 µM
HCC-2998 colon
  TGI: 70.4 µM
HCT-116 colon
  TGI: 25.8 µM
HCT-15 colon
  TGI: > 100 µM
HL-60(TB) leukemia
  TGI: 20.2 µM
HOP-18 NSCLC
  TGI: > 100 µM
HOP-62 NSCLC
  TGI: 62.5 µM
HOP-92 NSCLC
  TGI: 78.4 µM
HT29 colon
  TGI: 50.9 µM
IGROV1 ovarian
  TGI: 27 µM
K-562 leukemia
  TGI: 46.9 µM
KM12 colon
  TGI: 31.1 µM
KM20L2 colon
  TGI: 45.4 µM
LOX IMVI melanoma
  TGI: 58.3 µM
LXFL 529 NSCLC
  TGI: > 100 µM
M14 melanoma
  TGI: > 100 µM
M19-MEL melanoma
  TGI: > 100 µM
MALME-3M melanoma
  TGI: 36.4 µM
MOLT-4 leukemia
  TGI: 49 µM
NCI-H226 lung
  TGI: > 100 µM
NCI-H23 lung
  TGI: 99.5 µM
NCI-H460 lung
  TGI: 51.7 µM
NCI-H522 lung
  TGI: 39.1 µM
OVCAR-3 ovarian
  TGI: 76.6 µM
OVCAR-4 ovarian
  TGI: 90.5 µM
OVCAR-5 ovarian
  TGI: 78.6 µM
OVCAR-8 ovarian
  TGI: 30.6 µM
RPMI-8226 leukemia
  TGI: 69.7 µM
RXF 393 renal
  TGI: 39.9 µM
RXF-631 renal
  TGI: 27 µM
SF-268 CNS
  TGI: > 100 µM
SF-295 CNS
  TGI: > 100 µM
SF-539 CNS
  TGI: 12.5 µM
SK-MEL-2 melanoma
  TGI: 50.3 µM
SK-MEL-28 melanoma
  TGI: > 100 µM
SK-MEL-5 melanoma
  TGI: 12.7 µM
SK-OV-3 ovarian
  TGI: 86.6 µM
SN12C renal
  TGI: 87.4 µM
SNB-19 CNS
  TGI: > 100 µM
SNB-75 CNS
  TGI: 68.3 µM
SNB-78 CNS
  TGI: > 100 µM
SR leukemia
  TGI: 41.3 µM
SW-620 colon
  TGI: 22.8 µM
TK-10 renal
  TGI: 62.1 µM
U251 CNS
  TGI: 25.4 µM
UACC-257 melanoma
  TGI: > 100 µM
UACC-62 melanoma
  TGI: 33.5 µM
UO-31 renal
  TGI: 17.2 µM
